Test results reported in the NIST ThermoML archive (doi:10.1016/j.jct.2018.09.003).
Numbers after ± are expanded uncertainties.

What was measured:
[1] = activity coefficient (dimensionless); of the first substance listed, at infinite dilution; xn = mol fraction of the nth substance listed; conditions: 101.33 kPa, Liquid, Chromatography, x1 = 0
[2] = 101.33 kPa, Liquid, Vibrating tube method

Structure (SMILES)	activity coefficient ([1]; 313.15 K)	activity coefficient ([1]; 323.15 K)	activity coefficient ([1]; 333.15 K)	activity coefficient ([1]; 343.15 K)	activity coefficient ([1]; 353.15 K)	mass density ([2]; 313.15 K) [kg/m3]	mass density ([2]; 323.15 K) [kg/m3]	mass density ([2]; 333.15 K) [kg/m3]	mass density ([2]; 343.15 K) [kg/m3]	mass density ([2]; 353.15 K) [kg/m3]
Cc1ccccc1C [1,2-dimethylbenzene] + CCCCCCCCn1cc[n+](C)c1C.F[B-](F)(F)F	3.5 ± 0.37	3.58 ± 0.38	3.7 ± 0.39	3.82 ± 0.4	3.87 ± 0.41					
Cc1cccc(C)c1 [1,3-dimethylbenzene] + CCCCCCCCn1cc[n+](C)c1C.F[B-](F)(F)F	4.19 ± 0.44	4.24 ± 0.45	4.29 ± 0.45	4.35 ± 0.46	4.4 ± 0.46					
Cc1ccc(C)cc1 [1,4-dimethylbenzene] + CCCCCCCCn1cc[n+](C)c1C.F[B-](F)(F)F	4.06 ± 0.43	4.12 ± 0.43	4.16 ± 0.44	4.2 ± 0.44	4.24 ± 0.45					
C1COCCO1 [1,4-dioxane] + CCCCCCCCn1cc[n+](C)c1C.F[B-](F)(F)F	1.67 ± 0.17	1.72 ± 0.18	1.77 ± 0.18	1.81 ± 0.19	1.86 ± 0.19					
CCCCCCCCn1cc[n+](C)c1C.F[B-](F)(F)F [1-octyl-2,3-dimethylimidazolium tetrafluoroborate]						1092.3 ± 2.5	1086 ± 2.5	1079.7 ± 2.5	1073.3 ± 2.5	1067 ± 2.5
CC(C)CC(C)(C)C [2,2,4-trimethylpentane] + CCCCCCCCn1cc[n+](C)c1C.F[B-](F)(F)F	29.6 ± 3.1	28.8 ± 3	27.9 ± 2.9	26.9 ± 2.8	26.1 ± 2.8					
CC(C)CO [2-methyl-1-propanol] + CCCCCCCCn1cc[n+](C)c1C.F[B-](F)(F)F	2.66 ± 0.28	2.54 ± 0.27	2.42 ± 0.25	2.3 ± 0.24	2.19 ± 0.23					
CC(C)=O [acetone] + CCCCCCCCn1cc[n+](C)c1C.F[B-](F)(F)F	1.38 ± 0.14	1.4 ± 0.14	1.41 ± 0.15	1.42 ± 0.15	1.43 ± 0.15					
CC#N [acetonitrile] + CCCCCCCCn1cc[n+](C)c1C.F[B-](F)(F)F	1.01 ± 0.1	1.02 ± 0.1	1.04 ± 0.11	1.05 ± 0.11	1.07 ± 0.11					
c1ccccc1 [benzene] + CCCCCCCCn1cc[n+](C)c1C.F[B-](F)(F)F	2.04 ± 0.21	2.07 ± 0.22	2.1 ± 0.22	2.12 ± 0.22	2.15 ± 0.23					
CCCCO [butan-1-ol] + CCCCCCCCn1cc[n+](C)c1C.F[B-](F)(F)F	2.79 ± 0.29	2.64 ± 0.28	2.52 ± 0.26	2.4 ± 0.25	2.28 ± 0.24					
CCC(C)O (stereo not given) [butan-2-ol] + CCCCCCCCn1cc[n+](C)c1C.F[B-](F)(F)F	2.93 ± 0.31	2.78 ± 0.29	2.65 ± 0.28	2.51 ± 0.26	2.4 ± 0.25					
C1CCCCC1 [cyclohexane] + CCCCCCCCn1cc[n+](C)c1C.F[B-](F)(F)F	12.8 ± 1.4	12.5 ± 1.3	12.2 ± 1.3	11.9 ± 1.2	11.5 ± 1.2					
C1=CCCCC1 [cyclohexene] + CCCCCCCCn1cc[n+](C)c1C.F[B-](F)(F)F	8.2 ± 0.86	8.01 ± 0.84	7.81 ± 0.82	7.63 ± 0.8	7.52 ± 0.79					
CCCCCCCCCC [decane] + CCCCCCCCn1cc[n+](C)c1C.F[B-](F)(F)F	55.2 ± 5.8	54.2 ± 5.7	52.9 ± 5.6	51.5 ± 5.4	50.5 ± 5.3					
ClCCl [dichloromethane] + CCCCCCCCn1cc[n+](C)c1C.F[B-](F)(F)F	1.08 ± 0.11	1.09 ± 0.11	1.1 ± 0.11	1.1 ± 0.11	1.11 ± 0.11					

Structure (SMILES)	activity coefficient ([1]; 313.15 K)	activity coefficient ([1]; 323.15 K)	activity coefficient ([1]; 333.15 K)	activity coefficient ([1]; 343.15 K)	activity coefficient ([1]; 353.15 K)	mass density ([2]; 313.15 K) [kg/m3]	mass density ([2]; 323.15 K) [kg/m3]	mass density ([2]; 333.15 K) [kg/m3]	mass density ([2]; 343.15 K) [kg/m3]	mass density ([2]; 353.15 K) [kg/m3]
CCO [ethanol] + CCCCCCCCn1cc[n+](C)c1C.F[B-](F)(F)F	2.12 ± 0.22	1.96 ± 0.21	1.82 ± 0.19	1.67 ± 0.17	1.54 ± 0.16					
CCOC(C)=O [ethyl acetate] + CCCCCCCCn1cc[n+](C)c1C.F[B-](F)(F)F	2.91 ± 0.31	2.96 ± 0.31	2.96 ± 0.31	2.96 ± 0.31	2.96 ± 0.31					
CCc1ccccc1 [ethylbenzene] + CCCCCCCCn1cc[n+](C)c1C.F[B-](F)(F)F	4.36 ± 0.46	4.42 ± 0.46	4.46 ± 0.47	4.5 ± 0.47	4.57 ± 0.48					
CCCCCCC [heptane] + CCCCCCCCn1cc[n+](C)c1C.F[B-](F)(F)F	25.5 ± 2.7	25.1 ± 2.6	24.7 ± 2.6	24.3 ± 2.5	23.9 ± 2.5					
CCCCCC [hexane] + CCCCCCCCn1cc[n+](C)c1C.F[B-](F)(F)F	20 ± 2.1	19.8 ± 2.1	19.2 ± 2	18.7 ± 2	18.1 ± 1.9					
CO [methanol] + CCCCCCCCn1cc[n+](C)c1C.F[B-](F)(F)F	1.57 ± 0.16	1.47 ± 0.15	1.36 ± 0.14	1.26 ± 0.13	1.18 ± 0.12					
CC1CCCCC1 [methylcyclohexane] + CCCCCCCCn1cc[n+](C)c1C.F[B-](F)(F)F	15.8 ± 1.7	15.5 ± 1.6	15.1 ± 1.6	14.7 ± 1.6	14.3 ± 1.5					
CCCCCCCCC [nonane] + CCCCCCCCn1cc[n+](C)c1C.F[B-](F)(F)F	42.2 ± 4.4	41.1 ± 4.3	39.6 ± 4.2	38.4 ± 4	37.1 ± 3.9					
CCCCCCCC [octane] + CCCCCCCCn1cc[n+](C)c1C.F[B-](F)(F)F	33 ± 3.5	32.5 ± 3.4	32.2 ± 3.4	31.8 ± 3.3	31.3 ± 3.3					
CCCCC [pentane] + CCCCCCCCn1cc[n+](C)c1C.F[B-](F)(F)F	15.8 ± 1.7	15.3 ± 1.6	14.8 ± 1.6	14.3 ± 1.5	14 ± 1.5					
CCCO [propan-1-ol] + CCCCCCCCn1cc[n+](C)c1C.F[B-](F)(F)F	2.56 ± 0.27	2.39 ± 0.25	2.24 ± 0.24	2.1 ± 0.22	1.97 ± 0.21					
CC(C)O [propan-2-ol] + CCCCCCCCn1cc[n+](C)c1C.F[B-](F)(F)F	2.5 ± 0.26	2.35 ± 0.25	2.2 ± 0.23	2.07 ± 0.22	1.93 ± 0.2					
ClC(Cl)(Cl)Cl [tetrachloromethane] + CCCCCCCCn1cc[n+](C)c1C.F[B-](F)(F)F	4.11 ± 0.43	4.16 ± 0.44	4.2 ± 0.44	4.23 ± 0.44	4.26 ± 0.45					
C1CCOC1 [tetrahydrofuran] + CCCCCCCCn1cc[n+](C)c1C.F[B-](F)(F)F	2.06 ± 0.22	2.1 ± 0.22	2.12 ± 0.22	2.13 ± 0.22	2.15 ± 0.23					
Cc1ccccc1 [toluene] + CCCCCCCCn1cc[n+](C)c1C.F[B-](F)(F)F	2.84 ± 0.3	2.89 ± 0.3	2.95 ± 0.31	3.02 ± 0.32	3.09 ± 0.32					
ClC(Cl)Cl [trichloromethane] + CCCCCCCCn1cc[n+](C)c1C.F[B-](F)(F)F	1.04 ± 0.11	1.06 ± 0.11	1.07 ± 0.11	1.08 ± 0.11	1.09 ± 0.11					
